In series [1] the test system is Third larval stages of Periplaneta americana. As to the kind of experiment: Test on cockroaches, immersion process. Type of series: in vivo. As to conditions: immersion 60 seconds, time of reading not stated (2 and 24 hours, 7 days). The method, then: Test on cockroached—Immersion process
Test animals: Third larval stages of Periplaneta americana
(§1) Solvent: Dimethylsulfoxide
20 mg of active compound are dissolved in one ml of dimethylsulfoxide. In order to prepare a suitable formulation the solution of active compound is diluted with water to the concentration required in each case.
20 ml of this preparation of active compound are pipetted into tubes (of a diameter of 1.5 cm and a height of 10 cm). 4 cockroach larvae are intoxicated with CO2 and transferred to a tube (of a diameter of 1.2 cm and a height of 9 cm) containing 3 holes (in the base and 5 cm below the upper rim). The tube is sealed with a stopper and kept at room temperature for 30 minutes until all of the cockroach larvae again display normal activity. The tube is immersed in the active compound formulation for 60 seconds, during which period all of the cockroach larvae are completely coverd. After the liquid has drained off the cockroach larvae are transferred to filter discs in cans made of PP (of a diameter of 9.7 cm and a height of 8 cm height).
After 2 and 24 hours and after 7 days the activity of the active compound formulation is determined. 100% means that all of the cockroach larvae have been destroyed; 0% means that none of the cockroach larvae have been destroyed.

A further series concerns Caenorhabditis elegans. As to the kind of experiment: Antiparasitic activity against Caenorhabditis elegans, 96 well microplate (MIC). The note with it: 20° C., observed after 24 and 48 hours. Type of series: in vivo. The text has this:
(§2) As model insects for simple determination of antiparasitic and insecticidal activities, those insects are desired which can be easily obtained and bred in laboratories, and have no pathogenicity to a human. Caenorhabditis elegans, an unparasitic eelworm widely used in experiments of genetics, was used as a typical steam worm, and Artemia salina used as feed for tropical fish and named Brine shrimp, was used instead of insects.
Escherichia. coli for the feed of Caenorhabditis elegans (mutant having uracil requirement) was inoculated in a seed medium for E. coli to which a small amount of uracil was added, and cultured with shaking at 27° C. for 1 day. A petri dish of 6 cm diameter was filled with 10 ml of an agar medium for eelworm proliferation, and the medium was solidified. Then 0.5 ml of the culture of E. coli was spread over the medium in the dish, and the dish was incubated at 37° C. to proliferate E. coli. A piece of the agar was collected with a platinum loop from a petri dish in which Caenorhabditis elegans successfully proliferated, and inoculated in petri dishes in which E. coli was proliferated. The petri dishes were incubated at 20° C. to proliferate Caenorhabditis elegans. Since the life of eelworm is about 2 weeks, subculture was carried out every once a week. The eelworms grown with spread on the surface of the petri dish after 3 to 5 days from subculture were used for the experiments.
The agar medium for eelworm proliferation was prepared by mixing the solutions in the following proportion: Solution A: 100 ml, Solution B: 0.1 ml, Solution C: 0.05 ml, Solution D: 0.1 ml and Solution E: 2.5 ml (without pH adjustment), and dispensing each 10 ml portion into petri dishes of 60×15 mm.
In distilled water, 2.0% of bact-trypton (DIFCO Co.), 0.55% of sodium chloride and 0.001% of uracil (SIGMA Co., pH 7.4) were dissolved, and the solution was sterilized in an autoclave at 121° C. for 20 minutes.
(§3) Each well of a 96 well microplate was filled with the solution of the test compound (methanol as a solvent), and the solvent was removed using a vacuum pump, then 250 μl of the assay medium was added to each wells (the assay medium was prepared by dissolving 7.5 mM sodium hydrogencarbonate, 7.5 mM potassium chloride, 7.5 mM calcium chloride dihydrate and 7.5 mM magnesium sulfate heptahydrate in distilled water and adding 0.01% of lecithin thereto), and then the microplate was shaken using a microplate mixer for 15 minutes. To each well, a few individuals of Caenorhabditis elegans were added by softly rubbing the surface of the agar using a toothpick, or a few individuals of Artemia salina were added together with 50 μl of the buffer. The microplate was incubated at 20° C., and then the insects were observed after 24 and 48 hours under a microscope (magnification of 40×). The results were compared to those obtained without addition of the test compound, and evaluated by 4 grades.
(§4) The evaluation results were shown by indications of 4 grades from 0 to 3.
(§5) 1: A little week movements
(§6) Of the 4 grades, Indications 3 and 2 were judged as effective, and Indications 1 and 0 as ineffective. In Table 9, the values for each compound are minimum inhibitory concentrations (MIC) which were required to give Indication 2 (or 3) for Caenorhabditis elegans or Artemia salina. In Table 9, Caenorhabditis elegans and Artemia salina are abbreviated as C.E. and A.S., respectively.

The subject of a further series is Artemia salina. The series can be described thus: Insecticidal model activity against Artemia salina (brine shrimp), 96 well microplate (MIC). Type of series: in vivo. As to conditions: 20° C., observed after 24 and 48 hours.
Text: as §2
To a buffer for Artemia salina (obtained by dissolving 0.24% of Tris, 2.57% of sodium chloride, 0.47% of magnesium chloride, 0.07% of potassium chloride, 0.02% of sodium carbonate, 0.64% of magnesium sulfate and 0.11% of calcium chloride in distilled water and adjusting the pH to 7.1 with hydrochloric acid), dried eggs of Artemia salina [Tetra Brine Shrimp Eggs, Warner Lambert Co.] were added. The noprius larvae 1 or 2 days after hatching were used for the experiments.
as §3, §4, §5, §6

Another series deals with Lucilia cuprina larvae. The series can be described thus: Blowfly larvae test / development-inhibiting activity. Type of series: in vivo. Here is the method:
Blowfly larvae test/Development-inhibiting activity
Test animals: Lucilia cuprina larvae
as §1
20 mg of active compound are dissolved in one ml of dimethylsulfoxide. In order to prepare a suitable formulation the active compound solution is diluted with water to the concentration required in each case.
Approx. 20 Lucilia cuprina larvae are introduced into a test tube containing approx. 1 cm^3 of horse-meat and 0.5 ml of the active compound preparation to be tested. After 48 hours the activity of the active compound preparation is determined. The test tubes are transferred to beakers with a sand-covered base. After a further 2 days the test tubes are removed and the pupae counted.
The activity of the active compound preparation is assessed according to the number of flies which have hatched after 1.5 times the development period of an untreated control. 100% means that no flies have hatched: 0% means that all of the flies have hatched normally.

In series [2] the test system is Adult Ctenocephalides felis. As to the kind of experiment: Test on cat fleas / oral absorption. As to conditions: after 24 hours. Type of series: in vivo. Here is the method:
Test on cat fleas/oral absorption
Test animals: Adult Ctenocephalides felis
Solvent: Dimethylsulfoxide (DMSO)
20 μl of this formulation are added to 4 ml of citrated cow's blood and stirred.
20 starved adult fleas (of “Georgi” species of Ctenocephalides felis) are introduced into a chamber (of a diameter of 5 cm) which is sealed with gauze at the top and bottom. A metal cylinder, whose base is sealed with parafilm, is placed on the chamber. […] Whereas the blood is heated to 37° C. a temperature of 25° C. is adjusted in the region of the flea chambers. Controls are mixed with the same volume of DMSO without the addition of any of the compounds. The test are repeated three times.
After 24 hours the mortality is determined in %.

In another series the test system is Heterakis spumosa. The series can be described thus: In vivo experiments with Heterakis spumosa in mice. Also noted: key: 3 represents cure (no parasites detectable); 2 effective (<20% of parasites remaining); 1 trace effect (< of parasites remaining); 0 ineffective (>50% of parasites remaining). The note with it: orally 4 times, mice infected with H. spumosa. Here is the method:
In vivo experiments with Heterakis spumosa
For the experiments male mice (strain Bor CFW, 25-30 g of body weight on receipt) were housed in Macrolon cages (3 mice per cage) and provided with water and SNIFF rat feed (10-mm pellets) ad libitum. Mice were infected with H. spumosa by oral application of 90 embryonated eggs. The eggs were obtained from female Heterakis. isolated from mouse colon 40 days after infection followed by additional three weeks incubation at 37° C. The mice were treated orally 4 times with the compounds at the dosages of 1, 0.5, 0.25, 0.1, 0.05 and 0.025 mg/kg between days 46 and 49 after infection. Compounds were suspended in Cremophor EL. Infected control mice served as untreated controls which only received Cremophor EL. Mice were killed eight days after treatment (i.e. on day 57 after infection) with carbon dioxide and cecum and colon were dissected. The number of worms which have resided in the cecum and colon were counted macroscopically. The ratios of the number of expelled worms in percent of the total number of worms was defined as level of the anthelmintic activity. Activity was evaluated on a scale 0-3 where 3 represents cure (no parasites detectable), 2 effective (<20% of parasites remaining), 1 trace effect (< of parasites remaining) and 0 ineffective (>50% of parasites remaining).

[3] abbreviates: 100 ppm in citrated cow's blood.

The structures appear in SMILES notation.

With `CCC(C)C1OC2(C=CC1C)CC1CC(CC=C(C)C(OC3CC(OC)C(OC4CC(OC)C(=CC=CC(=O)O)C(C)O4)C(C)O3)C(C)C=CC=C3COC4C(O)C(C)=CC(C(=O)O1)C34O)O2` (centres unmarked) [Compound 66], the “activity (100% = all of the cockroach larvae destroyed)” value in series [1] (1 ppm) stood at 75%; in series [1] (10 ppm) it was 100%; in series [1] (100 ppm) it was 100%.
Turning to `CCC(C)C1OC2(C=CC1C)CC1CC(CC=C(C)C(OC3CC(OC)C(OC4CC(OC)C(=CCOC(=O)c5cccnc5)C(C)O4)C(C)O3)C(C)C=CC=C3COC4C(O)C(C)=CC(C(=O)O1)C34O)O2` (centres unmarked) [Compound 21], the “C.E. minimum inhibitory concentration (MIC) required to give Indication 2 (or 3)” value (“C.E. minimum inhibitory concentration” for short) with Caenorhabditis elegans came to 0.01 µg/mL. Further, in the series on Artemia salina, the “A.S. minimum inhibitory concentration (MIC) required to give Indication 2 (or 3)” value (“A.S. minimum inhibitory concentration” below) is 0.002 µg/mL. The “development-inhibiting activity (100% = no flies have hatched)” value with Lucilia cuprina larvae (1 ppm), in the series with Lucilia cuprina larvae (10 ppm) and in the series with Lucilia cuprina larvae (100 ppm) was 100% each time.
Consider `CCC(C)C1OC2(C=CC1C)CC1CC(CC=C(C)C(OC3CC(OC)C(OC4CC(OC)C(=CC(=O)O)C(C)O4)C(C)O3)C(C)C=CC=C3COC4C(O)C(C)=CC(C(=O)O1)C34O)O2` (centres unmarked) [Compound 25], for which the “C.E. minimum inhibitory concentration” value in the series on Caenorhabditis elegans was 0.05 µg/mL. The “A.S. minimum inhibitory concentration” value with Artemia salina stood at 0.01 µg/mL. Moreover, the results for the mortality of fleas in series [2] (10 ppm in citrated cow's blood) and in series [2] (setting [3]) were 69% and 100%, respectively.
The matching figures for `CCC(C)C1OC2(C=CC1C)CC1CC(CC=C(C)C(OC3CC(OC)C(OC4CC(OC)C(=CCO)C(C)O4)C(C)O3)C(C)C=CC=C3COC4C(O)C(C)=CC(C(=O)O1)C34O)O2` (centres unmarked) [Compound 4]: 0.01 µg/mL, 0.01 µg/mL, 42% and 100%.
Regarding `CCC(C)C1OC2(C=CC1C)CC1CC(CC=C(C)C(OC3CC(OC)C(OC4CC(OC)C(=CC(=O)OC)C(C)O4)C(C)O3)C(C)C=CC=C3COC4C(O)C(C)=CC(C(=O)O1)C34O)O2` (centres unmarked) [Compound 7], the “C.E. minimum inhibitory concentration” value in the series with Caenorhabditis elegans was found to be 0.01 µg/mL. In the series on Artemia salina, the “A.S. minimum inhibitory concentration” value turned out to be 0.002 µg/mL. For the same molecule, the “development-inhibiting activity (100% = no flies have hatched)” value with Lucilia cuprina larvae (1 ppm), with Lucilia cuprina larvae (10 ppm) and in the series with Lucilia cuprina larvae (100 ppm) was 100% throughout. The mortality of fleas in series [2] (10 ppm in citrated cow's blood) was 61%; in series [2] (setting [3]), 99%.
For the molecule `CCC(C)C1OC2(C=CC1C)CC1CC(CC=C(C)C(OC3CC(OC)C(OC4CC(OC)C(=CCOC5CCCCO5)C(C)O4)C(C)O3)C(C)C=CC=C3COC4C(O)C(C)=CC(C(=O)O1)C34O)O2` (centres unmarked) [Compound 31], the “C.E. minimum inhibitory concentration” value in the series with Caenorhabditis elegans came to 0.05 µg/mL. The “A.S. minimum inhibitory concentration” value in the series on Artemia salina stood at 0.01 µg/mL. The “anthelmintic activity score (scale 0-3)” value was 2 (2 effective (<20% of parasites remaining)) in the series with Heterakis spumosa (0.1 mg/kg), 2 (2 effective (<20% of parasites remaining)) in the series on Heterakis spumosa (0.25 mg/kg), 3 in the series with Heterakis spumosa (0.5 mg/kg) and 3 with Heterakis spumosa (1 mg/kg).
For `CCOC(=O)C=C1C(C)OC(OC2C(C)OC(OC3C(C)=CCC4CC(CC5(C=CC(C)C(C(C)CC)O5)O4)OC(=O)C4C=C(C)C(O)C5OCC(=CC=CC3C)C45O)CC2OC)CC1OC` (centres unmarked) [Compound 2], in the series on Caenorhabditis elegans, the “C.E. minimum inhibitory concentration” value was 0.01 µg/mL. Besides, the “A.S. minimum inhibitory concentration” value in the series on Artemia salina is 0.01 µg/mL. Moreover, the “anthelmintic activity score (scale 0-3)” value in the series with Heterakis spumosa (0.05 mg/kg) is given as 2 (2 effective (<20% of parasites remaining)); in the series on Heterakis spumosa (0.1 mg/kg), 3; in the series on Heterakis spumosa (0.25 mg/kg), 3; with Heterakis spumosa (0.5 mg/kg) it was 3; with Heterakis spumosa (1 mg/kg), 3. For the same molecule, the mortality of fleas is on record as 50% in series [2] (10 ppm in citrated cow's blood) and 100% in series [2] (setting [3]).
Regarding `CCC(C)C1OC2(CC3CC(CC=C(C)C(OC4CC(OC)C(OC5CC(OC)C(=CC(=O)OC)C(C)O5)C(C)O4)C(C)C=CC=C4COC5C(O)C(C)=CC(C(=O)O3)C45O)O2)CC(O)C1C` (centres unmarked) [Compound 78], the “activity (100% = all of the cockroach larvae destroyed)” value is listed as 50% in series [1] (1 ppm), 50% in series [1] (10 ppm) and 100% in series [1] (100 ppm).

The values are drawn from patent US6605595B1, “Avermectin derivatives” (The Kitasato Institute, priority 1999, dated 2003).
